Laboratory results: patent US20260210939A1, “MODIFIED OLFACTORY RECEPTORS” (GIVAUDAN SA, priority 2022, published 2026)

Columns and labels:
OR8K3 = target: T1, OR8K3 (Homo sapiens, UniProt Q8NH51, D295E/L122R/Y298D); test: cell-based; type: cell-based
T1 construct: Improved functional expression of modified OR-genes containing the truncated, optimized C-terminus; expressed in transfected cells; host or cells: HEK293T stably expressing human RTP1S(V227I) and RTP2(L220R)
T1 sequence (Q8NH51 with tags, fused parts or gaps L122R/D295E/Y298D): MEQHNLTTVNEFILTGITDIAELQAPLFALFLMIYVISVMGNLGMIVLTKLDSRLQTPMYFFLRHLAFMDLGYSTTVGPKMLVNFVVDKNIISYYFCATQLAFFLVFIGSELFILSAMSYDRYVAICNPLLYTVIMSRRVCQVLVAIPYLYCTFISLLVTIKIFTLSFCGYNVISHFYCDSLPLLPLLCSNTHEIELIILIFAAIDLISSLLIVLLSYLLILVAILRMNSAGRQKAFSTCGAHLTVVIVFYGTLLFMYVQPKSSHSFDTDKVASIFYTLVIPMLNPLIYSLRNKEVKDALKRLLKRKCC

OR10A3 = target: T2, OR10A3 (Homo sapiens, UniProt P58181); test: Dose-response test of single lactones on OR10A3 (luciferase); type: cell-based
T2 construct: Class II OR library members with modified C-terminal domains; expressed in transfected cells
T2 sequence (P58181 with tags, fused parts or gaps): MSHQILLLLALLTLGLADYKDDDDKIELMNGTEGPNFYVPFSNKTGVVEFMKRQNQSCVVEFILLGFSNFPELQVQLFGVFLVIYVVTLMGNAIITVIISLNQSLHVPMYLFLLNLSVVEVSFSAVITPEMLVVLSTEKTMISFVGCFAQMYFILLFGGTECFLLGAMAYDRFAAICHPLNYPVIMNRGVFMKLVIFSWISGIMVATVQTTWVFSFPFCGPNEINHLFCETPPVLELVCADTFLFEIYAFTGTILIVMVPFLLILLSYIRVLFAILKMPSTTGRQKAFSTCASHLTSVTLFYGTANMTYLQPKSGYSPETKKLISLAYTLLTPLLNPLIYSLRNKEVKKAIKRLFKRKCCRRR
Protocol: In a subsequent de-convultion experiment, the single ingredients were tested in a dose-response test on all the identified OR. […] Thus, OR2AP1 and OR2J2 are particularly strongly activated by the long-chain dodecalactone gamma, while OR10A3 is very sensitive to several longer chain lactones. […] Among the five OR, OR10A3 is the most sensitive.

inactive up to concentration (OR8K3; wild-type OR8K3) [µM] | EC10, concentration for 10-fold OR activation (OR10A3) [μM] | SMILES | activation of the modified receptor variant (OR8K3; OR8K3, SEQ ID NO: 86)
> 316 |  | CC(C)[C@@H]1CC[C@@H](C)CC1=O [menthone] | also activating the receptor, although with a lower potency
 | 298.04 | CCCC1CCC(=O)O1 (stereo not drawn) [Heptalactone gamma] | 
